Values of other authors as cited in US11633350B2, “Hypotonic microbicidal formulations and methods of use” (priority 2014, dated 2023).

Legend:
[1] = system: HIV; conditions: PK/PD models

Row | plasma concentration associated with 90% protection (EC90) [1] [µg/mL] | SMILES | systemic (blood) TFV peak (Cmax) concentration (after a single oral TDF dose) [ng/mL] | time to protection (in vivo) [days] | time to achieve protective concentrations of TFV-DP in tissue (in vivo, po)
1 | – | CC(C)OC(=O)OCOP(=O)(CO[C@H](C)Cn1cnc2c(N)ncnc21)OCOC(=O)OC(C)C.O=C(O)/C=C/C(=O)O [TDF, 2,4,6,8-Tetraoxa-5-phosphanonanedioic acid, 5-[[(1R)-2-(6-amino-9H-purin-9-yl)-1-methylethoxy]methyl]-, bis(1-methylethyl) ester, 5-oxide, (2E)-2-butenedioate (1:1)] | 350 | 3 | one week
2 | 0.107 | C[C@H](Cn1cnc2c(N)ncnc21)OCP(=O)(O)O [tenofovir, (R)-9-(2-phosphonylmethoxypropyl)adenine] | – | – | –
